Reference: PMC5793121 (Toxins, 2018)
Values joined by “and” are separate entries in the source; they are usually repeats but may differ in a detail not shown here. Equal values may be shown once. “Also recorded” adds a separate entry of the source. Read-outs that look alike come from different tables or passages of the source. No end group written: not given here.

Legend:
[1] = biological target: muscle-type Torpedo nicotinic acetylcholine receptor (nAChR); settings: cited from earlier work
[2] = test system: human neuronal heteromeric α3-containing nAChRs (α3β2, α3β4, etc.); assay type: cell-based
[3] = biological target: T1, human neuronal homopentameric α7 nAChR (Homo sapiens, UniProt P36544); assay: Calcium imaging of ACh-evoked [Ca2+]i rise in Neuro2a cells expressing α7 nAChR; assay type: cell-based; settings: 10 μM ACh (EC50); transfected Neuro2a cells, PNU120596 10 μM; 15 min preincubation; mean ± SEM, 4 independent experiments; read-out: IC50, inhibition of ACh-evoked calcium response of α7 nAChR
T1 construct: expressed in transfected cells; host or cells: mouse neuroblastoma Neuro2a, transient transfection (α7 nAChR-pCEP4) with human Ric-3 (Ric3-pCMV6-XL5, OriGene)
Experimental: Mouse neuroblastoma Neuro2a cells were purchased from the Russian collection of cell cultures (Institute of Cytology, Russian Academy of Sciences, Saint Petersburg, Russia). Cells were cultured in DMEM (Paneco, Moscow, Russia) supplemented with 10% FBS. They were sub-cultured the day before transfection and were plated at a density of 10,000 cells per well in a 96-well black plate. On the next day Neuro2a cells were transiently transfected with plasmids coding mouse muscle α1β1δε nAChR (pRBG4-vector) and a fluorescent calcium sensor Case12 (pCase12-cyto vector, Evrogen, Moscow, Russia) in a molar ratio of 2:1 following a lipofectamine transfection protocol (ThermoFisher Scientific, Waltham, MA, USA). […]
The plates were transferred to the multimodal microplate reader Hidex Sence (Hidex, Turku, Finland) where the cells were excited by light of 485 nm wavelength and emitted fluorescence was detected at 535 ± 10 nm. Fluorescence was recorded every 2 s for three minutes following agonist addition. Responses were measured as peak intensity minus basal fluorescence level and were expressed as a percentage of the maximal response obtained to agonist. Data files were analyzed using Hidex Sence software (Hidex, Turku, Finland) and OriginPro 7.5 software (OriginLab, Northampton, MA, USA, for statistical analysis).

[4] = test system: male ICR mice; assay: Forelimb grip strength test (muscle relaxant effect) after intramuscular administration; assay type: in vivo, mouse; settings: for effect on forelimb muscular strength: vs saline control
Experimental: 40 male ICR mice were divided equally into four groups: one control and three experimental groups. Animals of the control and experimental groups were treated with normal saline and with Az at doses of 0.03, 0.1 and 0.3 mg/kg, respectively. In addition 6 mice were treated with Az at dose of 0.01 mg/kg. The corresponding solutions were injected into the triceps muscles of the mouse forelimbs at a volume of 0.5 mL/kg per each limb. For all animals their basic forelimb grip strength was recorded before the substance administration with a 1027 grip strength meter (Columbus Instruments, Columbus, OH, USA). Further, their grip strength was measured 5, 10, 15, 20, 30, 60, 90 min after the Az (or normal saline) im administration.
Rocuronium was administered intramuscularly as described for the measurement of acute toxicity (Section 5.4.1). Muscle strength was assessed prior to administration of the substance and then 1, 2, 3, 4, 5 min after administration.

[5] = biological target: T2, rat neuronal heteromeric α4β2 nAChR (Rattus norvegicus, UniProt P09483+P12390); assay type: cell-based
T2 construct: expressed in transfected cells; host or cells: Xenopus laevis oocytes injected with pcDNA3.1 plasmids, α4:β2 1:1
Experimental: Ovary tissue from adult female Xenopus laevis was cut into small pieces and these pieces were digested with collagenase A (4 mg mL^−1, Worthington Biochemical Corp., Lakewood, NJ, USA) in Barth’s solution without calcium (88.0 mM NaCl, 1.1 mM KCl, 2.4 mM NaHCO3, 0.8 mM MgSO4, 15.0 mM HEPES/NaOH, pH 7.6) for 1.5 ± 2 h at 20 °C. The oocytes were stored in Barth’s solution with calcium (88.0 mM NaCl, 1.1 mM KCl, 2.4 mM NaHCO3, 0.3 mM Ca (NO3)2, 0.4 mM CaCl2, 0.8 mM MgSO4, 15.0 mM HEPES/NaOH, pH 7.6) supplemented with 63.0 μg/mL penicillin-G sodium salt, 40.0 μg/mL streptomycin sulfate and 40.0 μg/mL gentamicin. Stage V ± VI oocytes were selected and injected with 3 ng plasmids coding the rat α4 and β2 nAChR subunits (pcDNA3.1 vector) in a molar ratio of 1:1 using an Auto-Nanoliter Injector NanoJect-2 (Drummond Scientific Company, Broomall, PA, USA) in a total injection volume of 23 nL. After injection, oocytes were incubated at 18 °C in Barth’s solution with calcium for 48–120 h. Electrophysiological recordings were made using a Turbo TEC-03X amplifier (npi electronic GmbH, Tamm, Germany) and WinWCP recording software (University of Strathclyde, Glasgow, UK). […] To allow receptor recovery from desensitization, the oocytes were superfused for 5–10 min with buffer (1 mL/min) between ligand applications. Electrophysiological recordings were performed at a holding potential of −60 mV.

[6] = for AUC(0 → t) / Cmax / T1/2: single, [125I]-Az, blood radioactivity, 5 animals per time point
Experimental: The pharmacokinetic study was performed using 163 male ICR mice. Four experimental groups with 40 animals in each were formed. Three intact mice were used as control animals. The animals of the first two experimental groups were intravenously injected with 0.25 and 0.50 mg/kg [^125I]-Az, respectively. The animals of the other two experimental groups were intramuscularly injected with 0.25 and 0.50 mg/kg [^125I]-Az, respectively. To estimate Az elimination rate, animal blood samples were taken from the orbital sinus 5, 15, 30, 60 min and 1, 2, 4 and 24 h after [^125I]-Az administration. The obtained blood samples were weighed. For each indicated time point, [^125I]-Az concentration was calculated as a mean value in blood samples of five animals. The radioactivity (cpm) in the blood samples was counted using a Wallac 1470 WIZARD® Gamma Counter (Perkin Elmer, Waltham, MA, USA). […] Radioactivity data (cpm) were re-calculated to the concentration of [^125I]-Az in the obtained blood samples. The specific pharmacokinetic parameters (AUC (0 → t), Cmax, T1/2) of [^125I]-Az were estimated.

[7] = intramuscular injection to mice (abstract)

T2 sequence (P09483 31-630): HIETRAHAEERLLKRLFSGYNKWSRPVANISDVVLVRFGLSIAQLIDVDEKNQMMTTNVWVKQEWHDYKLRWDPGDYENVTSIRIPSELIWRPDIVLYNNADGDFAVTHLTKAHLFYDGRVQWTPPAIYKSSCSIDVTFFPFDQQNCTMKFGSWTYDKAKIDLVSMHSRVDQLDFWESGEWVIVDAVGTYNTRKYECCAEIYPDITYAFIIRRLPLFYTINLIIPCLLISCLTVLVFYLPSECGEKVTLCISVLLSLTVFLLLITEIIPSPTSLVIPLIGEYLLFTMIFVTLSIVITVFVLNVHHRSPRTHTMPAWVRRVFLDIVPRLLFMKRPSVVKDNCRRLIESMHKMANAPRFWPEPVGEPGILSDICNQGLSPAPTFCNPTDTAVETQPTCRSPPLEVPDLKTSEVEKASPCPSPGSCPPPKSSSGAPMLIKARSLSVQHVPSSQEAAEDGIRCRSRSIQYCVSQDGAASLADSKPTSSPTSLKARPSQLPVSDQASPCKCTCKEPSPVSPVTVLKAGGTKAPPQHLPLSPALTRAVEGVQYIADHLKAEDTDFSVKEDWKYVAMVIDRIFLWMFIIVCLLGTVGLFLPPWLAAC
T2 sequence (P12390 25-500): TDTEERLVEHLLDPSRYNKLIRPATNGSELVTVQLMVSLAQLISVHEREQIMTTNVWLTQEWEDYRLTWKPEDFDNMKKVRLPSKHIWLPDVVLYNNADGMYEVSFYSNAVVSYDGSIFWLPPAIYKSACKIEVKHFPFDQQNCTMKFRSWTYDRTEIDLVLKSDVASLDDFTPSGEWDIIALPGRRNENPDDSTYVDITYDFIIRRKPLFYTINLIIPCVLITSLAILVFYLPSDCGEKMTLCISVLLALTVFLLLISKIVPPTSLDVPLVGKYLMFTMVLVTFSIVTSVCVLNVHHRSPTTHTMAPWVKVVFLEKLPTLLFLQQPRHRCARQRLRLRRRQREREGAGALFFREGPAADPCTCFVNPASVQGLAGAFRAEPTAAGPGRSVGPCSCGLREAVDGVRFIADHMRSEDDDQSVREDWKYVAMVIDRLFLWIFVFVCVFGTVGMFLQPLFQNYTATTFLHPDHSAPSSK
T1 sequence (P36544 23-502): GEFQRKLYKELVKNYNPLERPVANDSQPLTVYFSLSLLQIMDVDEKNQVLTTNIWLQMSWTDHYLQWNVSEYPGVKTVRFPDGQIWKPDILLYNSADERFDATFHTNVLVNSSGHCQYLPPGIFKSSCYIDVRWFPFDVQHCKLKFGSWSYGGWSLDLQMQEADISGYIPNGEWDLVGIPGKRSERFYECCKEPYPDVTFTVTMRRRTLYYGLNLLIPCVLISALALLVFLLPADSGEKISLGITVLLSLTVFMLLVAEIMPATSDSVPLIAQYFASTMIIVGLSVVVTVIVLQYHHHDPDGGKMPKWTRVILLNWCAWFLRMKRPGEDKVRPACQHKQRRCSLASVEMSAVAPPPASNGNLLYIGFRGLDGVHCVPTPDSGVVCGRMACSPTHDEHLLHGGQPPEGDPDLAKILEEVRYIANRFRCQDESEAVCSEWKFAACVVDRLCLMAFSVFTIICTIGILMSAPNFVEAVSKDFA

DNWWPKPPHQGPRPPRPRPKP-NH2 [Az, azemiopsin]
IC50 [1]: 180 ± 30 nM
activity against α3-containing nAChRs (nicotine-evoked calcium responses) [2]: no Az activity; also recorded: no effect
IC50 [3]: 2670 nM and ~3000 nM
decrease of grip strength ([4]; 0.1 mg/kg im): 37%
average effective dose at the maximum response point ([4]; 10 min after im injection, male ICR mice): 0.09 mg/kg
effect on forelimb muscular strength ([4]; Az 0.01 mg/kg im, n = 6): No significant differences; also recorded: not effective
effect on forelimb muscular strength ([4]; Az 0.03, 0.1 and 0.3 mg/kg im, n = 10): significant decrease
time of maximal muscle relaxant effect after administration ([4]; all doses studied, im, preserved until the 30th minute): 10 min
duration of muscle relaxant effect ([4]; depending on the dose, im): 25 to 55 min
longest period of action ([4]; dose 0.3 mg/kg im, from the 5th to the 60th minute): 55 min
average effective dose (muscle relaxant effect) [4, 7]: 90 µg/kg
initial effective dose (muscle relaxant effect) [4, 7]: 30 µg/kg
initial effective dose (muscle relaxant effect) ([4]; single im injection in forelimb muscles, male ICR mice): 30 µg/kg
influence on ion currents induced by 20 μM nicotine in α4β2 nAChR [5]: no influence
effect on heteromeric rat α4β2 nAChR ([5]; concentrations up to 100 μM): no effect
excretion half-life ([6]; depending on administration way (iv or im), mice): 15 to 40 min
AUC(0 → t) ([6]; im 0.25 mg/kg, male ICR mice): 328 ng·h/mL
Cmax ([6]; im 0.25 mg/kg, male ICR mice): 278 ng/mL
T1/2 ([6]; im 0.25 mg/kg, male ICR mice): 18 min
AUC(0 → t) ([6]; im 0.50 mg/kg, male ICR mice): 622 ng·h/mL
Cmax ([6]; im 0.50 mg/kg, male ICR mice): 257 ng/mL
T1/2 ([6]; im 0.50 mg/kg, male ICR mice): 40.8 min
half-life T1/2 ([6]; intramuscular administration, 0.25 and 0.5 mg/kg, male ICR mice): 20 to 40 min
AUC(0 → t) ([6]; iv 0.25 mg/kg, male ICR mice): 214 ng·h/mL
Cmax ([6]; iv 0.25 mg/kg, male ICR mice): 517 ng/mL
T1/2 ([6]; iv 0.25 mg/kg, male ICR mice): 15.6 min
AUC(0 → t) ([6]; iv 0.50 mg/kg, male ICR mice): 542 ng·h/mL
Cmax ([6]; iv 0.50 mg/kg, male ICR mice): 745 ng/mL
T1/2 ([6]; iv 0.50 mg/kg, male ICR mice): 17.4 min
